Measured values: the NIST ThermoML archive (doi:10.1021/acs.jced.8b01159)
Several values for one entry are separate records, joined by “and”; a condition that tells them apart may be missing. Equal entries are not always repeated. Numbers after ± are expanded uncertainties.

Columns and labels:
[1] = molar heat capacity at constant pressure; details: 100 kPa, Liquid, Extra sensitive DSC
[2] = Liquid, Closed cell (Static) method

CCN1CCOCC1 [4-ethylmorpholine]
Details | molar heat capacity at constant pressure [J/K/mol] | vapor or sublimation pressure
[1], 270 K | 198.1 ± 7.7 | –
[1], 275 K | 199.6 ± 7.7 | –
[1], 280 K | 201.1 ± 7.8 | –
[1], 285 K | 202.8 ± 7.9 | –
[1], 290 K | 204.5 ± 7.9 | –
[1], 295 K | 206.4 ± 8 | –
[1], 300 K | 208.2 ± 8.1 | –
[1], 305 K | 209.9 ± 8.1 | –
[1], 310 K | 211.6 ± 8.2 | –
[1], 315 K | 213.4 ± 8.3 | –
[1], 320 K | 215.5 ± 8.3 | –
[1], 325 K | 217.7 ± 8.4 | –
[1], 330 K | 219.9 ± 8.5 | –
[1], 335 K | 221.9 ± 8.6 | –
[1], 340 K | 223.8 ± 8.7 | –
[1], 345 K | 225.9 ± 8.7 | –
[1], 350 K | 228 ± 8.8 | –
[1], 355 K | 230.2 ± 8.9 | –
[2], 243.11 K | – | 0.01727 ± 0.00058 kPa
[2], 243.12 K | – | 0.01728 ± 0.00058 kPa and 0.01725 ± 0.00058 kPa
[2], 248.15 K | – | 0.0276 ± 0.00074 kPa and 0.02761 ± 0.00074 kPa
[2], 253.15 K | – | 0.0431 ± 0.00099 kPa and 0.04308 ± 0.00099 kPa
[2], 253.16 K | – | 0.04305 ± 0.00098 kPa
[2], 258.15 K | – | 0.06592 ± 0.0013 kPa
[2], 258.16 K | – | 0.06592 ± 0.0013 kPa and 0.06589 ± 0.0013 kPa
[2], 263.16 K | – | 0.09902 ± 0.0019 kPa and 0.09898 ± 0.0019 kPa and 0.09893 ± 0.0019 kPa
[2], 268.16 K | – | 0.1459 ± 0.0022 kPa and 0.146 ± 0.0022 kPa
[2], 273.17 K | – | 0.2112 ± 0.0027 kPa and 0.2111 ± 0.0027 kPa
[2], 278.16 K | – | 0.3025 ± 0.0035 kPa
[2], 278.17 K | – | 0.3027 ± 0.0035 kPa and 0.3026 ± 0.0035 kPa
[2], 283.17 K | – | 0.4244 ± 0.0046 kPa and 0.4243 ± 0.0046 kPa
[2], 288.17 K | – | 0.5882 ± 0.0061 kPa and 0.5883 ± 0.0061 kPa and 0.5881 ± 0.0061 kPa
[2], 293.16 K | – | 0.8046 ± 0.008 kPa and 0.8045 ± 0.008 kPa
[2], 298.17 K | – | 1.086 ± 0.01 kPa and 1.085 ± 0.01 kPa
